The values that follow come from patent publication US6852700B1, “Colostrinin, and uses thereof” (Ludwig Hirzfeld Institute of Immunology and Experimental …, priority 1996, dated 2005).

Ends that are not written are not given here.

The subject of series [1] is mice exposed to gamma radiation. In words: Radiation sickness in mice exposed to gamma radiation. The format is in vivo.
Series [2] has as its system lymphocytes isolated from cord blood (CBL). Description: Induction of cytokines in a culture of lymphocytes isolated from cord blood (CBL). Particulars: 20 hours. The format is cell-based, human. As for the experimental part: Cord blood obtained from the Gynaecological-Obstetric Department of the Specialist District Hospital in Wroclaw. Induction of cytokines by Colostrinin™ in vitro in lymphocytes of cord blood taken 4-6 hours after parturition is effected in the following way.
The lymphocytes are isolated using a Ficoll-Paque® gradient containing 5.7 g of the component Ficoll 400 and 9.0 g of the component Diatrizoate Sodium per 100 ml. The lymphocytes isolated are suspended in RPMI-1640 culture medium at density of 2×10^6 lymphocyte cells per 1 ml of culture medium. Colostrinin™ at concentration of 1-20 μg/ml or phytohaemagglutinin at concentration of 10 μg/ml is added to the lymphocyte suspension. The culture is incubated for 20 hours at a temperature of 37° C. Then the level of cytokines in the culture fluids is determined by biological methods.

For series [3], the system named is mice. Description: Toxicological studies on mice. The series is classed as in vivo. Particulars: both after oral and parenteral administration.
Series [4] deals with sarcoma 180. Description: Growth of sarcoma 180 in mice. Particulars: intraperitoneal administration in mice. The format is in vivo.
For series [5], the system named is lymphocytes present in whole blood. Description: Induction of cytokines in vitro in whole blood cultures. The format is cell-based, human. As for the experimental part:
Induction of cytokines by the polypeptide Colostrinin™ in vitro on blood taken from healthy and sick volunteers taking the pharmaceutical in the form stated in Example III, in cyclic treatment, is carried out as follows.
Whole blood, containing 10 units per 1 ml of heparin without preservatives is diluted at 1:10 ratio in RPMI 1640 culture medium. Incubation is conducted in the same culture medium without inducers (negative control), or in the presence of 1-100 μg/ml of the polypeptide Colostrinin™ or in the presence of 2 μg/ml blood of phytohaemagglutinin (PHA) and 2 μg/ml blood of lipopolysaccharide (LPS), at a temperature of 37° C., in an atmosphere of 5% carbon dioxide, for 20 hours. Samples with mixture of PHA and LPS are the positive control, as they can stimulate the maximum quantities of cytokines.

Series [6] relates to patients with Alzheimer's disease. In words: Treatment of volunteer patients with Alzheimer's disease with tablets for sucking. The series is classed as in vivo, human. How it is done:
(§1) The method of treatment of disorders of the central nervous system was investigated on a group of volunteer patients in the early and moderate stages of Alzheimer's disease. The dosage units were administered in the form of tablets for sucking, between meals, containing 0.00015 g of Colostrinin™ defined in Examples I and III. Firstly, 1 tablet was used daily for a period of 3 weeks, then therapy was interrupted for 2-4 weeks and treatment was repeated, administering 2 tablets daily for 3 weeks. […] This is manifested by an inability to synthesise IFN and also tumour necrosis factor TNF-α. This phenomenon permits quantitative measurements of the action of active agent.
This was followed by a 3-week pause in treatment (during the pause, the tolerance to the inducer returns to normal). Blood samples for investigating stimulation of IFN-γ by Colostrinin™ and control inducers (PHA-10 μg/ml) were taken every week. The method of performing the tests for induction of cytokines and their quantitative determination were described in previous sections.
as §1, with “early” for “early and moderate”, “sucking” for “sucking,”, “NP” for “Colostrinin™”, “Example II.” for “Examples I and III.”, “3” for “2-4”

The test system of series [7] is mice of the NZB line. Description: Haemolytic anaemia in mice of the NZB line. The format is in vivo. Particulars: intraperitoneal administration.
The test system of series [8] is human volunteers. Particulars: tablets for sucking, at least 25 μg, at least one daily, about 3 weeks.
Setting [9] is: donor four breast cancer, dose 10 μg/ml.
Where [10] appears, read: donor four breast cancer, dose 100 μg/ml.
Where [11] appears, read: donor one. Alzheimer's disease, dose 10 μg/ml.
[12] abbreviates: donor one. Alzheimer's disease, dose 100 μg/ml.
Setting [13] is: donor six healthy young soldier, dose 1 μg/ml.
Where [14] appears, read: donor six healthy young soldier, dose 10 μg/ml.
The mark [15] stands for this setting: donor six healthy young soldier, dose 100 μg/ml.
The mark [16] stands for this setting: donor three schizophrenia, dose 10 μg/ml.
The mark [17] stands for this setting: donor three schizophrenia, dose 100 μg/ml.
The mark [18] stands for this setting: donor two healthy young soldier, dose 1 μg/ml.
[19] abbreviates: donor two healthy young soldier, dose 10 μg/ml.
Setting [20] is: donor two healthy young soldier, dose 100 μg/ml.
The mark [21] stands for this setting: healthy volunteers, inducer dose 10 μg/ml, 20 hours.
Setting [22] is: healthy volunteers, inducer dose 100 μg/ml, 20 hours.
[23] abbreviates: patients with Alzheimer's disease, inducer dose 10 μg/ml.
[24] abbreviates: patients with Alzheimer's disease, inducer dose 100 μg/ml.
Setting [25] is: early and moderate Alzheimer's disease, 1 tablet daily 3 weeks, pause 2-4 weeks, 2 tablets daily 3 weeks.
[26] abbreviates: early Alzheimer's disease, NP tablets, 1 daily 3 weeks, pause 3 weeks, 2 daily 3 weeks.

Colostrinin ™: the “protection against radiation sickness” value in series [1] is “protects the animals against radiation sickness”. The “Cytokines IFN” value in series [2] (dose 1 μg/ml) worked out at 38 ± 66 unit/ml; in series [2] (dose 10 μg/ml), 78 ± 80 unit/ml; in series [2] (dose 20 μg/ml), 89 ± 79 unit/ml; in series [5] (setting [21]), 50 ± 59 unit/ml; in series [5] (setting [22]) it was 344 ± 254 unit/ml; in series [5] (setting [23]), 15 ± 9 unit/ml. The “Cytokines IFN” value in series [5] (setting [24]) came out at 21 ± 14 unit/ml. For the same substance, the “Cytokines TNF” value in series [2] (dose 1 μg/ml) turned out to be 16 ± 17 unit/ml; in series [2] (dose 10 μg/ml), 37 ± 35 unit/ml; in series [2] (dose 20 μg/ml), 59 ± 41 unit/ml; in series [5] (setting [21]), 316 ± 371 unit/ml; in series [5] (setting [22]), 670 ± 560 unit/ml; in series [5] (setting [23]), 182 ± 158 unit/ml. In series [5] (setting [24]), the “Cytokines TNF” value stood at 249 ± 187 unit/ml. Moreover, in series [3], the LD50 entry was “above 1.25 g/kg of body weight”. Besides, the “growth of sarcoma 180” value in series [4] is given as “inhibit the growth of sarcoma 180”. For the same substance, the “production of cytokines, dose dependence” value in series [5] (concentrations of 1-100 μg/ml, whole blood) was “stimulates the production of cytokines in a dose-dependent fashion”. Further, the “production of cytokines (IFN-γ, TNF-α, IL-6, IL-10, growth factors)” value in series [5] (cultures of lymphocytes of human peripheral blood (including cord blood)) is recorded as “stimulates the production of cytokines”. Also, the “Titres of IFN determined by Antivirus biotest” value in series [5] (setting [9]) is 50 units/ml; in series [5] (setting [10]) it was 70 units/ml; in series [5] (setting [11]), 20 units/ml; in series [5] (setting [12]), 40 units/ml; in series [5] (setting [13]), 100 units/ml; in series [5] (setting [14]), 200 units/ml. The “Titres of IFN determined by Antivirus biotest” value in series [5] (setting [15]) turned out to be 600 units/ml; in series [5] (setting [16]), 6 units/ml; in series [5] (setting [17]) it was 6 units/ml; in series [5] (setting [18]), 100 units/ml; in series [5] (setting [19]), 300 units/ml; in series [5] (setting [20]), 300 units/ml. Further, the “Titres of IFN determined by ELISA IFN-γ” value in series [5] (setting [9]) was found to be 307 pg/mL; in series [5] (setting [10]), 523 pg/mL; in series [5] (setting [11]), 427 pg/mL; in series [5] (setting [12]) it was 400 pg/mL; in series [5] (setting [13]), 2690 pg/mL; in series [5] (setting [14]), 3778 pg/mL. In addition, the “Titres of IFN determined by ELISA IFN-γ” value came to 3941 pg/mL in series [5] (setting [15]); 29 pg/mL in series [5] (setting [16]); 29 pg/mL in series [5] (setting [17]); 1413 pg/mL in series [5] (setting [18]); 3402 pg/mL in series [5] (setting [19]); 2920 pg/mL in series [5] (setting [20]). Besides, the “clinical effect in patients with Alzheimer's disease” value in series [6] (setting [25]) was “improvement of contact and uplift of mood were observed”. In addition, in series [6] (setting [25]), the “reactivity to induction of IFN and TNF-α after treatment” value was “induced a state of hyporeactivity or tolerance”. In addition, in series [6] (patient five, 100 μg tablet every other day for three weeks, then 3-week pause), the “time course of hyporeactivity to induction of IFN-γ (FIG. 1)” value is recorded as “hyporeactivity appears as early as during the first week”. Further, the “development of haemolytic anaemia” value in series [7] is on record as “inhibits the development of haemolytic anaemia”. Besides, the “reactivity to induction of IFN-γ and TNF-α” value in series [8] is on record as “state of hyporeactivity”.

On to “VESYVPLFP [NP, nonapeptide fragment of Colostrinin obtained by chymotrypsin digestion or chemical synthesis]”, for which, in series [6] (setting [26]), the “clinical effect in patients with Alzheimer's disease” value was “improvement of contact and uplift of mood were observed”; the “reactivity to induction of IFN and TNF-α after treatment” value is “induced a state of hyporeactivity or tolerance”.

Regarding “phytohaemagglutinin [PHA, reference compound]”, in series [2] (PHA dose 10 μg/ml), the “Cytokines IFN” value is on record as 75 ± 66 unit/ml and the “Cytokines TNF” value is on record as 83 ± 69 unit/ml.
